“And” between values parts separate entries of the source, which are not always exact repeats. Equal values may be shown once.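 96-well plates; 48 h exposure; 5 concentrations. Endpoints by linear interpolation between flanking doses. Not reached: highest tested concentration assigned. GI50 marks 50% less growth. TGI: total growth inhibition.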
Tests used:
Assay in all cases: NCI tumour cell line growth inhibition, 48 h
CAKI-1 renal = system: CAKI-1 renal
EKVX NSCLC = system: EKVX NSCLC
K-562 leukemia = system: K-562 leukemia
MOLT-4 leukemia = system: MOLT-4 leukemia
NCI-H522 lung = system: NCI-H522 lung
SF-268 CNS = system: SF-268 CNS
SNB-19 CNS = system: SNB-19 CNS
TK-10 renal = system: TK-10 renal
SR leukemia = system: SR leukemia
T-47D breast = system: T-47D breast

SMILES | TGI (CAKI-1 renal) | TGI (EKVX NSCLC) | TGI (K-562 leukemia) | TGI (MOLT-4 leukemia) | TGI (NCI-H522 lung) | TGI (SF-268 CNS) | TGI (SNB-19 CNS) | TGI (TK-10 renal) | TGI (SR leukemia) | TGI (T-47D breast) | GI50 (MOLT-4 leukemia) | GI50 (SNB-19 CNS) | GI50 (SR leukemia) | GI50 (TK-10 renal)
COC(=O)c1sc(=S)sc1SCc1ccccc1CSc1sc(=S)sc1C(=O)OC | > 100 µM | > 100 µM | > 100 µM | > 100 µM | > 100 µM | > 100 µM | > 100 µM | > 100 µM | – | – | – | – | – | –
CC(C)CCC[C@@H](C)[C@H]1CC[C@H]2[C@@H]3CC=C4C[C@@H](OC(=O)c5cccc6c(=O)c7ccccc7[nH]c56)CC[C@]4(C)[C@H]3CC[C@]12C | – | > 75 µM | > 75 µM | > 75 µM | > 75 µM | > 75 µM | > 75 µM | > 75 µM | > 75 µM | > 75 µM | – | – | – | –
CN=C(Nn1cnnc1)OC | > 100 µM | > 100 µM | > 100 µM | > 100 µM | > 100 µM | – | > 100 µM | – | > 100 µM | > 100 µM | – | – | – | –
CC(=O)NC1C(CO)O[C@@H]2OC(C)(C)O[C@H]12 (stereo partly drawn) | > 100 µM | > 100 µM | – | > 100 µM | > 100 µM | > 100 µM | > 100 µM | > 100 µM | – | – | – | – | – | –
S=C(N/N=C\C=N/NC(=S)N1CCCCCC1)N1CCCCCC1 | > 100 µM | > 100 µM | > 100 µM | > 100 µM | > 100 µM | > 100 µM | > 100 µM | > 100 µM | – | 21.8 µM | – | – | – | –
CC[C@]12C=CCN3CCC4(c5cc(N=Nc6ccccc6)c(OC)cc5N(C)[C@H]4[C@@](O)(C(=O)OC)[C@@H]1OC(C)=O)[C@@H]32 (stereo partly drawn) | 69.8 µM | 34.2 µM | 64.2 µM | 34.6 µM | 33 µM | 33 µM | 47.2 µM | 34.1 µM | 45.5 µM | – | – | – | – | –
O=C(c1ccccc1)c1c(C(F)(F)F)n([O-])c2ccccc2[n+]1=O | 1.94 µM | 6.04 µM | – | 0.516 µM | 2 µM | – | 3.23 µM | 3.6 µM | 0.413 µM | 2.85 µM | – | – | – | –
COc1cc(C2C3=C(CCC3=O)Oc3cc4c(cc32)OCO4)cc(OC)c1OC (stereo not drawn) | 30.3 µM | > 100 µM | > 100 µM | – | – | – | > 100 µM | 69.2 µM | – | – | – | – | – | –
CN(C)CCOC(=O)COc1ccc(Cl)cc1 | > 100 µM | > 100 µM | > 100 µM | > 100 µM | > 100 µM | > 100 µM | > 100 µM | – | > 100 µM | > 100 µM | – | – | – | –
O=c1[nH]c(=O)n(C2OC(COP(=O)(O)OP(=O)(O)O)C(O)C2O)cc1F (stereo not drawn) | 34.8 µM | 42.5 µM | > 50 µM | > 50 µM | 34.3 µM | > 50 µM | > 50 µM | > 50 µM | > 50 µM | – | – | – | – | –
CCOC(=O)c1cc2c(OC(C)=O)ccc(OC(C)=O)c2s1 | 8.46 µM | 7.73 µM | – | > 24 µM | 1.07 µM | 3.85 µM | 19.9 µM | 17.5 µM | > 22.7 µM | – | – | – | – | –
CN1CCn2c(Br)ccc2C1=O | > 100 µM | > 100 µM | > 100 µM | > 100 µM | > 100 µM | > 100 µM | > 100 µM | > 100 µM | > 100 µM | – | – | – | – | –
O=C(Nn1c(-c2ccccc2)nc2ccccc2c1=O)c1ccccn1 | – | > 100 µM | > 100 µM | > 100 µM | > 100 µM | > 100 µM | > 100 µM | > 100 µM | > 100 µM | > 100 µM | – | – | – | –
Cc1cc(Cc2c(F)c(F)c(Cc3cc(C)no3)c(F)c2F)on1 | 24.6 µM | > 100 µM | > 100 µM | > 100 µM | > 100 µM | > 100 µM | > 100 µM | > 100 µM | – | > 100 µM | – | – | – | –
Clc1nc(-[n+]2ccc(-c3ccncc3)cc2)nc(Nc2ccccc2)c1Cl | – | > 100 µM | > 100 µM | > 100 µM | – | > 100 µM | > 100 µM | > 100 µM | 77.4 µM | > 100 µM | – | – | – | –
O=C(O)/C=C(/CC(=O)O)C(=O)O | 54.1 µM | 51.7 µM | 42.6 µM | 38.4 µM | 35.7 µM | 40 µM | 62.3 µM | 54.6 µM | – | 48.1 µM | – | – | – | –
CC1(O)C=CC2CCC1C2O (stereo not drawn) | > 100 µM | > 100 µM | > 100 µM | > 100 µM | > 100 µM | 93.7 µM | > 100 µM | > 100 µM | 50.2 µM | – | – | – | – | –
O=C(c1ccc2ccccc2c1)C1S(=O)(=O)OCCOS1(=O)=O | > 100 µM | > 100 µM | > 100 µM | > 100 µM | – | – | > 100 µM | > 100 µM | > 100 µM | – | – | – | – | –
CCN(CC)CCO/N=C1\CC[C@H]2[C@@H]3CC=C4C[C@@H](O)CC[C@]4(C)[C@H]3CC[C@]12C | 30 µM | > 100 µM | 30.7 µM | 40.4 µM | 34 µM | > 100 µM | 98.5 µM | 96.1 µM | 26.4 µM | – | – | – | – | –
COP(=O)(OC)C(N)CCSC (stereo not drawn) | > 100 µM | > 100 µM | > 100 µM | > 100 µM | > 100 µM | > 100 µM | > 100 µM | > 100 µM | > 100 µM | – | – | – | – | –
O=C1NC(=S)N/C1=C/c1ccccc1O | > 100 µM | > 100 µM | – | > 100 µM | > 100 µM | > 100 µM | > 100 µM | > 100 µM | > 100 µM | > 100 µM | – | – | – | –
CCOc1ccc2[nH]c3c(C)c4cc[n+](C)cc4c(C)c3c2c1 | > 35.3 µM | > 100 µM | 24.5 µM and 18.3 µM | 21.6 µM and > 56 µM | 3.05 µM and 3.57 µM | 0.605 µM and 1.18 µM | 1.26 µM and 3.37 µM | 81.6 µM and > 100 µM | 13.7 µM and > 62.5 µM | – | 1.11 µM and 2.69 µM | 0.297 µM and 0.707 µM | 1.13 µM and 2.69 µM | 9.4 µM and 26.6 µM
CC1(C)COC(c2cccc(C3=NC(C)(C)CO3)c2Br)=N1 | > 100 µM | > 100 µM | > 100 µM | > 100 µM | – | > 100 µM | > 100 µM | > 100 µM | > 100 µM | > 100 µM | – | – | – | –
